This is an account of results in patent publication US20100138957A1 (priority 2007, published 2010).

The assay concerns Xylella fastidiosa. Conditions: in vivo.

Regarding “MAKWKLFKKIGIGFKKAAHVGKAALTK [B-passerin]”, the PD resistance index result is “higher than that of tolerant control plants” and the “resistance to X. fastidiosa conferred in transgenic grape plants” value was “significantly higher level of resistance”.
